Source: patent US20090148445A1, “METHODS OF SENSITIZING CANCER TO THERAPY-INDUCED CYTOTOXICITY” (The Regents of the University of California, priority 2005, published 2009)
Where two headings read alike, the source gives them in different places.

Legend:
[1] = test system: rituximab sensitive and rituximab resistant B-NHL tumor cells; test: Sensitization of B-NHL tumor cells to drug-induced apoptosis (conclusions); format: cell-based
Experimental: 1) Salinosporamide A at very low concentrations (0.1-10 nM) sensitizes both rituximab sensitive and rituximab resistant B-NHL tumor cells to drug-induced apoptosis.

[2] = test system: B-NHL Daudi cell line (wild type); test: Sensitization to CDDP-induced apoptosis, propidium iodide flow cytometry, Daudi; settings: for apoptosis by combination treatment with CDDP: inhibitor 1-15 nM 1 h
[3] = test system: rituximab resistant Daudi RR1 cell line; test: Sensitization to CDDP-induced apoptosis, propidium iodide flow cytometry, Daudi RR1; format: cell-based; settings: for potentiation of apoptosis in combination with CDDP: inhibitor 1 h
Experimental: The rituximab resistant clone Daudi-RR1 was treated as in FIG. 1 above.
FIG. 4A compares the effect of Salinosporamide A and bortezomib on CDDP-induced apoptosis in Daudi RR1 cells.
FIG. 4B compares the effect of Salinosporamide A and DHMEQ on CDDP-induced apoptosis in Daudi RR1 cells.
Rituximab (chimeric anti-CD20 monoclonal antibody) has been used in the treatment of Non-Hodgkin's Lymphoma alone or in combination with chemotherapy. The clinical response has been very encouraging; however, some patients are initially unresponsive or develop resistance following treatment. In order to investigate the mechanism of rituximab resistance we have developed in our laboratory rituximab resistant clones from B-NHL cell lines. We have selected certain clones for further analysis of the underlying mechanism of resistance. […] We investigated whether Salinosporamide A can sensitize Daudi RR1 to CDDP-induced apoptosis.
Similar studies were performed as above in a) with Daudi RR1 cells.

[4] = test system: TRAIL-resistant Ramos cells; test: Sensitization to TRAIL-induced apoptosis; format: cell-based
[5] = test system: 60 human tumor cell lines; settings: NCI screening panels of 60 human tumor cell lines; cited from earlier work
caspase 9 = test: Caspase 9 activation by western (pro-caspase 9 level) in Ramos cells; format: cell-based
Experimental: The activation of capsase 9 was assessed by western as the level of pro-caspase 9 was reduced following treatment.

[6] = test system: Raf-kinase inhibitor protein (RKIP); test: RKIP expression by western blot in Ramos cells; format: cell-based
Experimental: (§1) Ramos cells were treated with 10 nM Salinosporamide A for various periods of time, and total cell lysates were examined for the expression of RKIP by western blot analysis. The expression of β-actin was used as a control.
as §1, with “RKIP is a member of the phosphotidylethanolamine-binding protein (PEBP) family. Ramos” for “Ramos”

B-NHL Ramos cell line = test: Sensitization to CDDP-induced apoptosis, propidium iodide flow cytometry, Ramos
Experimental: The percent apoptotic cells was recorded. […] The treatment were performed in duplicates.

YY1 [7] = test: YY1 transcription by RT-PCR; format: cell-based
Description: (§2) The expression of β-actin was used as a control.

DR5 [8] = test: DR5 expression, rituximab resistant Ramos RR1; format: cell-based; settings: rituximab resistant Ramos cells RR1
DR5 [9] = test: DR5 surface expression by flow cytometry, Ramos; format: cell-based
multiple myeloma cells = multiple myeloma cells resistant to conventional and bortezomib therapies; cited from earlier work
YY1 [10] = test: YY1 expression by western blot in Ramos cells; format: cell-based; settings: various concentrations, 24 hour exposure
Description: as §2, §2

Bcl-xL = Bcl-xL expression by western; format: cell-based
Experimental: Bcl-xL expression was assessed by western.

[11] = administered orally or intravenously; cited from earlier work
PTEN = PTEN expression by western; format: cell-based; settings: FIG. 15
Description: Further, most resistant tumor cells express low levels of PTEN, and PTEN is a target for therapeutic intervention, as well as a biomarker

[12] = test system: Salinosporamide A resistant Daudi cells; test: Rituximab-mediated sensitization to Salinosporamide A-induced apoptosis, Daudi; format: cell-based; settings: rituximab 20 ug/ml 1 h, then Salinosporamide A 10 nM 20 h
DR5 [13] = test: DR5 expression by Western, Ramos; format: cell-based
HL60MX2 = settings: drug resistant HL60MX2; equal doses as for HL60; cited from earlier work
HL60 = settings: drug sensitive HL60; equal doses as for HL60MX2; cited from earlier work
pleiotrophin (PTN) = test: Pleiotrophin (PTN) expression; format: cell-based; settings: 5 nM
Description: PTN has been reported to be elevated in tumor cells and in the circulation of cancer patients and is of prognostic significance. In addition, inhibition of PTN contributes to the sensitizing effect of Salinosporamide A. PTN is also a target for therapeutic intervention.

[14] = DHMEQ (μM) or Salinosporamide A (nM) 1 h, then CDDP 10 μg/ml 20 h
[15] = Daudi wild type, then CDDP 10 μg/ml 20 h
[16] = inhibitor 1 h, then CDDP 15 μg/ml 20 h

Experimental for Ramos B-NHL cells: Ramos cells were treated with rituximab (20 μg/ml) for 1 h and then treated with various concentrations of Salinosporamide A for an additional 20 h. The cells were then examined for apoptosis as described above in FIG. 1.
Ramos cells were cultured untreated or treated with rituximab (20 μg/ml) for 18 h. Thereafter, the cells were treated with adriamycin (ADR) (5 μg/ml) or with different concentrations of Salinosporamide A (0.1, 1.0, 10 nM) overnight. The cell lines were examined for apoptosis by flow cytometry using the propidium iodide method for measuring DNA fragmentation.
Ramos cells were treated with rituximab (20 ug/ml) (12 h to 18 h) and the cells were treated with various concentrations of Salinosporamide A (1-10 nM) for an additional 20 h and the cells were examined for apoptosis using the PI method detecting DNA fragmentation by flow cytometry.

For `O=C(NC1=CC(=O)[C@H]2O[C@H]2[C@H]1O)c1ccccc1O` [DHMEQ, reference compound], the “increase in concentration required for sensitization as compared to Salinosporamide A” value ([1]; B-NHL tumor cells, drug-induced apoptosis) was 4,000 fold, the “higher concentration used with DHMEQ as compared to Salinosporamide A for similar sensitization” value ([2]; Daudi wild type, CDDP 10 μg/ml) was 4,000 fold and the “sensitization to CDDP-induced apoptosis” value ([2]; Daudi, DHMEQ 1-65 μM 1 h, then CDDP 10 μg/ml 20 h) was “can sensitize Daudi cells to CDDP-induced apoptosis”. For the same compound, the “higher concentration used with DHMEQ as compared to Salinosporamide A for similar sensitization” value ([3]; CDDP 10 μg/ml) was 4,000 fold and the “sensitization to CDDP-induced apoptosis” value [3, 14] was “sensitize cells to CDDP-induced apoptosis”.
With `CC(C)C[C@H](NC(=O)[C@H](Cc1ccccc1)NC(=O)c1cnccn1)B(O)O` [bortezomib, reference compound] the “apoptosis by combination treatment with CDDP” value [2, 15] was “significant apoptosis by the combination treatment at all concentrations of inhibitors used” and the “potentiation of apoptosis in combination with CDDP” value ([3]; then CDDP 10 μg/ml 20 h) was “significant potentiation of apoptosis”.
For `C[C@@]12OC(=O)[C@]1([C@@H](O)[C@@H]1C=CCCC1)NC(=O)[C@@H]2CCCl` [Salinosporamide A], the “sensitization to TRAIL-induced apoptosis” value [4] is given as “sensitizes TRAIL-resistant Ramos cells to TRAIL-induced apoptosis”, the mean growth inhibition [5] is given as “less than 10 nM” and the “caspase 9 activation” value (caspase 9; Salinosporamide A alone) is given as “activates caspase 9”. The “caspase 9 activation in combination with CDDP” value (caspase 9; combination with CDDP) was “more caspase 9 was activated”, the “levels of RKIP protein” value ([6]; Ramos, 10 nM, 15 minute exposure) was “increase in the levels of RKIP protein” and the RKIP expression ([6]; Salinosporamide A alone, FIG. 15) was “induces the expression”. The “RKIP expression in combination with rituximab” value ([6]; combination with rituximab, FIG. 15) was “more was expressed”, the “cytotoxicity of Salinosporamide A treatment alone” value (B-NHL Ramos cell line; 1 and 10 nM, no CDDP) was “modest cytotoxicity” and the “concentration at which potentiation of cytotoxicity was mostly observed (significant synergistic cytotoxicity)” value (B-NHL Ramos cell line; [16]) was 0.1 nM. For the same compound, the “cytotoxicity of combination treatment with CDDP” value (B-NHL Ramos cell line; [16]) was “significant potentiation of cytotoxicity”, the YY1 transcription (YY1 [7]) was “inhibits YY1 transcription” and the “concentrations that sensitize to drug-induced apoptosis” value ([1]; rituximab sensitive and rituximab resistant B-NHL tumor cells) was 0.1 to 10 nM. For the same compound, the DR5 expression (DR5 [8]) was “upregulates DR5 expression”, the “apoptosis by combination treatment with CDDP” value [2, 15] was “significant apoptosis by the combination treatment at all concentrations of inhibitors used” and the “cytotoxicity of combination treatment with CDDP” value ([2]; Daudi, treated as Ramos, function of concentration) was “significant cytotoxicity was observed”. For the same compound, the DR5 surface expression (DR5 [9]) was “upregulated DR5 surface expression”, the induction of apoptosis (multiple myeloma cells) was “induces apoptosis” and the “levels of YY1 protein” value (YY1 [10]) was “decrease in the levels of YY1 protein”. The “concentration inhibiting Bcl-xL expression” value (Bcl-xL) was less than 2.5 nM, the “sensitization to CDDP-induced apoptosis” value [3, 14] was “sensitize cells to CDDP-induced apoptosis” and the “potentiation of apoptosis in combination with CDDP” value ([3]; then CDDP 10 μg/ml 20 h) was “significant potentiation of apoptosis”. For the same compound, the “sensitization to CDDP-induced apoptosis” value ([3]; treated as Ramos, function of concentration) was “significantly sensitized”, the “anti-tumor effects in vivo” value [11] was “exerted anti-tumor effects” and the PTEN expression (PTEN; Salinosporamide A alone) was “induces the expression”. For the same compound, the “PTEN expression in combination with rituximab” value (PTEN; combination with rituximab) was “more was expressed”, the “apoptosis by combination of rituximab and Salinosporamide A” value [12] was “significant apoptosis and synergy was achieved” and the “cytotoxic effects of sole treatment” value (Ramos B-NHL cells; Ramos, no rituximab, 0.1, 1.0, 10 nM overnight) was “no detectable cytotoxic effects”. The “apoptosis by combination treatment with rituximab” value (Ramos B-NHL cells; Ramos, rituximab 20 ug/ml 12-18 h, then Salinosporamide A 1-10 nM 20 h) was “significant apoptosis”, the “rituximab sensitization to Salinosporamide A-induced apoptosis compared with ADR” value (Ramos B-NHL cells; Ramos, rituximab 20 μg/ml 18 h, ADR 5 μg/ml) was “greater than that achieved with ADR” and the “apoptosis in rituximab pre-treated tumor cells” value (Ramos B-NHL cells; Ramos, rituximab 20 μg/ml 18 h, Salinosporamide A 1 nM) was “significant apoptosis”. The “apoptosis in rituximab pre-treated tumor cells” value (Ramos B-NHL cells; Ramos, rituximab 20 μg/ml 18 h, Salinosporamide A 10 nM) was “less effective due to cell loss”, the “concentration at which synergistic activity with rituximab was detected” value (Ramos B-NHL cells; Ramos, rituximab 20 ug/ml pre-treatment) was “>= 1 nM” and the “rituximab sensitization to Salinosporamide A-induced apoptosis compared with CDDP” value (Ramos B-NHL cells; rituximab-mediated chemosensitization, FIG. 6) was “higher level than CDDP”. The DR5 expression (DR5 [13]) was “upregulates DR5 expression”, the cytotoxicity (HL60MX2) was “cytotoxic” and the cytotoxicity (HL60) was “cytotoxic”. The “pleiotrophin (PTN) expression” value (pleiotrophin (PTN)) was “inhibits the growth factor pleiotrophin (PTN) expression significantly”.
In the case of rituximab [reference compound], the “sensitization of tumor cells to Salinosporamide A-induced apoptosis” value (Ramos B-NHL cells; rituximab 20 ug/ml pre-treatment) was “can sensitize drug-resistant tumor cells to Salinosporamide A induced apoptosis”.
